The assay has as its target T1, CDK5/p35 (Homo sapiens, UniProt Q00535).
T1 construct: purchased Thermo Fisher Scientific (Life Technologies) SelectScreen
Nature of the assay: SelectScreen Z'LYTE. The format is biochemical. Summed up: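 SelectScreen broad panel; activity (Z'LYTE, Adapta) plus binding formats. ATP: Km app for CSF1R Z'LYTE; 10 for CAMK1 Adapta. Readout = % per kinase.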

Each structure is given as a SMILES string.

T1 sequence (Q00535 whole entry): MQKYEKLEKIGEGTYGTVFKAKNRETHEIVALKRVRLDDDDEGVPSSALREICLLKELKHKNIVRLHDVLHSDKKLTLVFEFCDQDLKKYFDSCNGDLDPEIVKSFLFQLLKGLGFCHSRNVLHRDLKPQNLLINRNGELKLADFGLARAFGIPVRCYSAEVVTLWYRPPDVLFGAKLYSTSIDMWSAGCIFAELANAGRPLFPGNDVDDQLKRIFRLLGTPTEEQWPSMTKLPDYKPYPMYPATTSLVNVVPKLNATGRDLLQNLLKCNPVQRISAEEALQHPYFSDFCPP
T1 sequence (Q15078 whole entry partner): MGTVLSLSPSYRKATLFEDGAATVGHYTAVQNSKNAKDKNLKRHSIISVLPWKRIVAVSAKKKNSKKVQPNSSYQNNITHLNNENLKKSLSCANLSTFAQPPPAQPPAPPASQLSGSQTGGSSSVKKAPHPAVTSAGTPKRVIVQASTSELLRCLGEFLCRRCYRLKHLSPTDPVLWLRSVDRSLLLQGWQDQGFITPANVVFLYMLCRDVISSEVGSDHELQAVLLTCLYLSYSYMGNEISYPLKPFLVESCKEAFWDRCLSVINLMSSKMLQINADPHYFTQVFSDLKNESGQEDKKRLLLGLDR

Broadly, the inhibition is the change of the read-out against control, counted positive when it falls. Regarding `CN(C(=O)CN1CCOCC1)c1ccc2sc3c(-c4cccc5c(=O)cc(N6CC7CCC(C6)O7)oc45)cccc3c2c1` [NU5455], the inhibition at 1 µM is -8.6%.

(Values after publication PMC6934184, “Selective DNA-PKcs inhibition extends the therapeutic index of localized radiotherapy and chemotherapy” (The Journal of Clinical Investigation, 2019).)
